In the supplement of paper PMC10307832:

Legend:
Test in all cases: relative viability (nuclei count vs DMSO), 5 days (fraction); higher = more cells survive
[1] = compound: NCC(=O)Nc1ccc(-n2nc(C(F)(F)F)cc2-c2ccc3c(ccc4ccccc43)c2)cc1 + O=C(c1cc(Cc2n[nH]c(=O)c3ccccc23)ccc1F)N1CCN(C(=O)C2CC2)CC1 [Olaparib] (partner 8 µM)
Procedure, shortened: (§1)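 For relative viability, nuclei counts in treated wells were divided by those in vehicle wells. Lung cancer cell lines had been pin-tool dosed in 1536-well plates the day after seeding and cultured for 5 days, then fixed and stained in one step (final 0.05% Triton X-100, 1% formaldehyde, 1 ug/ml Hoechst) and imaged at 4×. Doses were one drug alone or a fixed anchor-drug dose plus five library-drug doses (not always all listed) in √10 steps, and values are duplicate-plate medians.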

[2] = compound: NCC(=O)Nc1ccc(-n2nc(C(F)(F)F)cc2-c2ccc3c(ccc4ccccc43)c2)cc1 + CCNC(=O)c1noc(-c2cc(C(C)C)c(O)cc2O)c1-c1ccc(CN2CCOCC2)cc1 [Luminespib] (partner 0.01 µM)
Procedure, shortened: as §1

kb NB 142-70 + Dasatinib = compound: C1CSC2=C(C(=O)N1)SC3=C2C=C(C=C3)O [kb NB 142-70] + Cc1nc(Nc2ncc(C(=O)Nc3c(C)cccc3Cl)s2)cc(N2CCN(CCO)CC2)n1 [Dasatinib] (partner 0.075 µM)
Procedure, shortened: as §1

[3] = compound: NCC(=O)Nc1ccc(-n2nc(C(F)(F)F)cc2-c2ccc3c(ccc4ccccc43)c2)cc1 + Cc1nc(NC(=O)N2CCC[C@H]2C(N)=O)sc1-c1ccnc(C(C)(C)C(F)(F)F)c1 [Alpelisib] (partner 2 µM)
Procedure, shortened: as §1

**Q.** With UMC-11 as the cell line, how does the relative viability ([1]; first compound 0.02 µM) read?
**A.** Its relative viability is 0.307.

**Q.** And the relative viability ([1]; first compound 0.06325 µM)?
**A.** Its relative viability is 0.355.

**Q.** What about the relative viability ([1]; first compound 0.2 µM) of the same cell line?
**A.** The relative viability was 0.537.

**Q.** What about the relative viability ([1]; first compound 0.6325 µM) of the same cell line?
**A.** Its relative viability is 0.354.

**Q.** What about the relative viability ([1]; first compound 2 µM) of the same cell line?
**A.** The relative viability was 0.377.

**Q.** And the relative viability ([2]; first compound 0.02 µM)?
**A.** Its relative viability is 1.06.

**Q.** And the relative viability ([2]; first compound 0.06325 µM)?
**A.** The relative viability was 0.965.

**Q.** What about the relative viability ([2]; first compound 0.2 µM) of the same cell line?
**A.** Its relative viability is 1.05.

**Q.** And the relative viability ([2]; first compound 0.6325 µM)?
**A.** Its relative viability is 0.948.

**Q.** And the relative viability ([2]; first compound 2 µM)?
**A.** Its relative viability is 0.948.

**Q.** What about the relative viability (kb NB 142-70 + Dasatinib; first compound 0.1 µM) of the same cell line?
**A.** Its relative viability is 0.438.

**Q.** And the relative viability (kb NB 142-70 + Dasatinib; first compound 1 µM)?
**A.** The relative viability was 0.464.

**Q.** And the relative viability (kb NB 142-70 + Dasatinib; first compound 3.162 µM)?
**A.** The relative viability was 0.318.

**Q.** What about the relative viability ([3]; first compound 0.02 µM) of the same cell line?
**A.** The relative viability was 0.985.

**Q.** What about the relative viability ([3]; first compound 0.06325 µM) of the same cell line?
**A.** The relative viability was 0.968.

**Q.** And the relative viability ([3]; first compound 0.2 µM)?
**A.** Its relative viability is 1.03.

**Q.** And the relative viability ([3]; first compound 0.6325 µM)?
**A.** The relative viability was 0.958.

**Q.** And the relative viability ([3]; first compound 2 µM)?
**A.** The relative viability was 1.1.
